From ChEMBL document CHEMBL1201862, “PubChem BioAssay data set” (2004)
The source made the active and inactive calls.

Assays:
[1] = target: T1, Bcl-2-like protein 10 (Homo sapiens, UniProt Q9HD36); assay: Bcl-B/TR3 peptide binding disruption – biochemical, fluorescence polarization, FITC-TR3 peptide, selectivity assay for Bfl-1 inhibitor project, primary screen (AID 748);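 also: fluorescence polarization from a fluorescein-labelled TR3 peptide binding purified Bcl-B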
T1 sequence (Q9HD36 whole entry): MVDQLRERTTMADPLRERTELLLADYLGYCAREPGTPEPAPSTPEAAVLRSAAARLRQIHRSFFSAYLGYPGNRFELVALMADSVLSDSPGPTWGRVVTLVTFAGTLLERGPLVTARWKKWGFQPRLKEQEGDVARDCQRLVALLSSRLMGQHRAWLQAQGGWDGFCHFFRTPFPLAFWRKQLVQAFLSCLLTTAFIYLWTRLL

[2] = target: T2, Dual specificity protein phosphatase 6 (Rattus norvegicus, UniProt Q64346); assay type: functional
T2 sequence (Q64346 whole entry): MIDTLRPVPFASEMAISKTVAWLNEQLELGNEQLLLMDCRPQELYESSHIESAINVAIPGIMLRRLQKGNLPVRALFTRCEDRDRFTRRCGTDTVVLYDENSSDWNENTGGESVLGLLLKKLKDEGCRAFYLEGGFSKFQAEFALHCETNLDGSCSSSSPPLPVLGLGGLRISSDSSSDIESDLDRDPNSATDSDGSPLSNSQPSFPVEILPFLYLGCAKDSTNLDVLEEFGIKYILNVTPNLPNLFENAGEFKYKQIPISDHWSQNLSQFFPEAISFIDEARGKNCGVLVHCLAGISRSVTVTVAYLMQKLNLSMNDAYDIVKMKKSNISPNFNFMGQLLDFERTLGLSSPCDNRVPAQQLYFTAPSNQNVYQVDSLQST

[3] = target: T3, Carboxy-terminal domain RNA polymerase II polypeptide A small phosphatase 1 (Homo sapiens, UniProt Q9GZU7); assay: CTDSP1 inhibitors, concentration-response, biochemical, absorbance readout, ultra-high-throughput screen actives (AID 540297); assay type: functional
T3 sequence (Q9GZU7 whole entry): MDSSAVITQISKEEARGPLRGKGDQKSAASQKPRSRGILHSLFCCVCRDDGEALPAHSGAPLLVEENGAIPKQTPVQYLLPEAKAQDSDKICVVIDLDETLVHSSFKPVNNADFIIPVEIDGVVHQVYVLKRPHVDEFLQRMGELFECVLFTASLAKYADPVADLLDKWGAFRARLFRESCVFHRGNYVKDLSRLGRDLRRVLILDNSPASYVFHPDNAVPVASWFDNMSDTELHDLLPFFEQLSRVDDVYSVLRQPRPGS

[4] = target: T4, Tyrosine-protein phosphatase non-receptor type 7 (Homo sapiens, UniProt P35236); assay type: functional
T4 sequence (P35236 whole entry): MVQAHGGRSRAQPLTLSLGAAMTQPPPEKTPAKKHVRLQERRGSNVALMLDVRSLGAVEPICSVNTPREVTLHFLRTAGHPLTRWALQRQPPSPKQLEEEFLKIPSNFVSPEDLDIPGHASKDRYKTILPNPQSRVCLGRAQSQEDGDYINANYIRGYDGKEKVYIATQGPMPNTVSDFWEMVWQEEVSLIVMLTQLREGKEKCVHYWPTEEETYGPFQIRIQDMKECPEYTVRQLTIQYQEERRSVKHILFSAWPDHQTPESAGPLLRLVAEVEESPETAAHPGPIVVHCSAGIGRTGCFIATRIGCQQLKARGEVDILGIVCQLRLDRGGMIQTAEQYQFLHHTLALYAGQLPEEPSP

[5] = target: T5, Estrogen receptor beta (Homo sapiens, UniProt Q92731); assay: blockers of SRC-3 recruitment to ERβ – biochemical, ELISA, streptavidin-HRP readout, orthogonal assay, confirmation (AID 1060)
T5 sequence (Q92731 whole entry): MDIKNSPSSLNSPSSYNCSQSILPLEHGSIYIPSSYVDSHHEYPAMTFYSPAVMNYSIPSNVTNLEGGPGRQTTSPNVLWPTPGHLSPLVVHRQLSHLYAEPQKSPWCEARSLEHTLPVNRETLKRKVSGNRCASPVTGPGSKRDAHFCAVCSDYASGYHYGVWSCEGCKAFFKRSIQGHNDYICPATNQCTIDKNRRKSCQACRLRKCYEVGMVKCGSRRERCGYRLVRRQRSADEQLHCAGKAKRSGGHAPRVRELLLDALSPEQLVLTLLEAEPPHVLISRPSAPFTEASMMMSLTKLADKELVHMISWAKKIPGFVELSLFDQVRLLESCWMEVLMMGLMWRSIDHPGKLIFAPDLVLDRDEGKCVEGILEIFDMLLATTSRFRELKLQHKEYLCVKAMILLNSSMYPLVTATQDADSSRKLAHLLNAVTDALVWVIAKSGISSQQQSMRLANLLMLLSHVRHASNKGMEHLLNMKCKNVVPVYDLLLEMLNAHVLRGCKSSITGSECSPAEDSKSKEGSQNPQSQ

[6] = target: T5, Estrogen receptor beta
[7] = target: T2, Dual specificity protein phosphatase 6
[8] = target: Glyceraldehyde-3-phosphate dehydrogenase (Homo sapiens, UniProt P04406)
Sequence of Glyceraldehyde-3-phosphate dehydrogenase (P04406 whole entry): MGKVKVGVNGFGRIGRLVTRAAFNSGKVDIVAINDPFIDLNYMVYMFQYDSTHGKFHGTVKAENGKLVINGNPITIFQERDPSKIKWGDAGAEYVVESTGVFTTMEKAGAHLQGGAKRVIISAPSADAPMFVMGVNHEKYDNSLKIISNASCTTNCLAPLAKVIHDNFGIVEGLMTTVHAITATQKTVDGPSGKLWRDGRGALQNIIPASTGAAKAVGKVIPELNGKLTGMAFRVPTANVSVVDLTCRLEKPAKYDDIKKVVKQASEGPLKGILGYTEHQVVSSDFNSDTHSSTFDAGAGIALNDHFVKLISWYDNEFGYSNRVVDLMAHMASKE

[9] = tested on: INS1; assay: INS-1E survival protection against cytokine death – cell-based, luminescence, retest, dose response (AID 449756); assay type: functional; details: Rattus norvegicus;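 also: cell death triggered by IL-1 beta plus TNF-alpha plus IFN-gamma mixture; protective hits raise ATP signal compared with cytokine alone wells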
[10] = reduction of Shn3 3'UTR-driven luciferase in osteoblasts – cell-based, Clone20 osteoblasts, firefly luciferase, cherry-picked, dose response (AID 624132); assay type: functional;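 also: firefly luciferase luminescence from reporter carrying the Shn3 3'UTR in osteoblasts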
[11] = loss of viability in HepG2 cells – cell-based, CellTiter-Glo, cherry-picked, cytotoxicity control for Shn3 inhibitor project, dose response (AID 624134); assay type: functional
[12] = target: Latent membrane protein 1 (Human herpesvirus 4 (strain B95-8), UniProt P03230); assay: LMP1 TES1 pathway selectivity over dsRED control – imaging, HEK293T, dual-color eGFP/dsRED, cherry-picks, selectivity assay for LMP1 NF-kB inhibitor project, dose response (AID 588398); assay type: functional, cell-based
Sequence of Latent membrane protein 1 (P03230 whole entry): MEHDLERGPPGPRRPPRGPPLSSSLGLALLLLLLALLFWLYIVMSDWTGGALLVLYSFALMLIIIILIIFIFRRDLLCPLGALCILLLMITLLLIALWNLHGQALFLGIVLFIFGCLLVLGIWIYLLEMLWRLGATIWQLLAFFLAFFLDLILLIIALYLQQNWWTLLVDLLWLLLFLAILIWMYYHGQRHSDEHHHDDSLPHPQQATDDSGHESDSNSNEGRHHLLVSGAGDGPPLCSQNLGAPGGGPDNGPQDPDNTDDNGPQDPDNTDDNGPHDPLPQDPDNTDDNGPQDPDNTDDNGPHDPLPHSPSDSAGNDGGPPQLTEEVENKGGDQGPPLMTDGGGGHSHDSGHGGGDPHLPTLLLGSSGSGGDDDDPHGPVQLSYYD

[13] = non-specific 3'UTR reporter inhibition in Clone20-Shn3RL – cell-based, Renilla luciferase, cherry-picked, counter-screen for Shn3 inhibitor project, dose response (AID 624133); assay type: functional
[14] = tested on: HEK293; assay: EBV LMP1 TES2 canonical NF-kB signalling blockers – cell-based, HEK293, luciferase, cherry-pick, dose response (AID 588343); assay type: functional; details: Homo sapiens
[15] = tested on: CHO; assay: CHO cell viability loss, potency – luminescence, cytotoxicity control for TLR9-MyD88 binding inhibitor project, dose response (AID 588339); assay type: functional, cell-based, hamster; details: Cricetulus griseus;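 also: CHO cells stably coexpressing TLR9 and MyD88 fusions from primary screen; compound exposure lasted 48 hours before viability readout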
[16] = target: T6, Endoribonuclease toxin MazF (Escherichia coli K-12, UniProt P0AE70); assay: activation of MazEF endoribonuclease cleavage – biochemical, fluorescence, single-stranded RNA substrate, uHTS hits, dose response (AID 588481); assay type: functional
T6 sequence (P0AE70 whole entry): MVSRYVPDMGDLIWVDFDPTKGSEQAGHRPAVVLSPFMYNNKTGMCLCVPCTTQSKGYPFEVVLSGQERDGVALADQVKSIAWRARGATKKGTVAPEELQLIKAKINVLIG

[17] = target: Beta Lactamase (Pseudomonas aeruginosa, UniProt Q932Y6); assay: BLA reporter interference, concentration series – BLA reporter cells, FRET fluorescence, artefact control for TLR9-MyD88 binding inhibitor project, dose response (AID 588341); assay type: cell-based;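 also: cell based assay in CHO-K1 cells stably expressing beta-lactamase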
Sequence of Beta Lactamase (Q932Y6 whole entry): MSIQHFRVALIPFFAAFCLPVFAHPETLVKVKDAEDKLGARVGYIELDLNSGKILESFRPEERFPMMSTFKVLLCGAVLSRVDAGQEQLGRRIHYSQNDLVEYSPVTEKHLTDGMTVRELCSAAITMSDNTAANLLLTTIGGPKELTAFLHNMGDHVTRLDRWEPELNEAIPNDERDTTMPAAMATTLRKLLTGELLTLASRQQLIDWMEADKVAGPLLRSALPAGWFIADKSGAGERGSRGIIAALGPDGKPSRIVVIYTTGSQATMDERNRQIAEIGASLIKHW

[18] = target: T6, Endoribonuclease toxin MazF; assay: substrate-only fluorescence increase artefacts – biochemical, single-stranded RNase substrate, counter-screen for MazEF activator project, dose response (AID 588502); assay type: functional
[19] = target: T7, Cytochrome P450 1A2 (Homo sapiens, UniProt P05177);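 also: PubChem cytochrome P450 panel assay, CYP1A2 panel member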
T7 sequence (P05177 whole entry): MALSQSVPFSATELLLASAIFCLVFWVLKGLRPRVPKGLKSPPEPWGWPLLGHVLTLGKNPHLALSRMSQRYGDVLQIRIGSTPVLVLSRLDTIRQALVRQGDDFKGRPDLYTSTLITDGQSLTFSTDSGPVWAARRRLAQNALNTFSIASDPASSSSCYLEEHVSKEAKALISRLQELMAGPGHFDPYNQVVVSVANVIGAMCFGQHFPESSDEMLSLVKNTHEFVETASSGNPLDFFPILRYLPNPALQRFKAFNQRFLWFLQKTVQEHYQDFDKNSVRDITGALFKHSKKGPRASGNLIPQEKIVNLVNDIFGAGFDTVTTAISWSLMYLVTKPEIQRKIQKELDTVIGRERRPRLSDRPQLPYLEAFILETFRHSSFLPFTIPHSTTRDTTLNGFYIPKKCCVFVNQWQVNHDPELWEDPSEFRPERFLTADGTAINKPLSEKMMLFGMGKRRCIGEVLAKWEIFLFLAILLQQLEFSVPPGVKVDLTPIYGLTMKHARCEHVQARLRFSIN

[20] = target: Cytochrome P450 3A4 (Homo sapiens, UniProt P08684);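 also: CYP3A4 tested as one member of a cytochrome P450 panel screen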
Sequence of Cytochrome P450 3A4 (P08684 whole entry): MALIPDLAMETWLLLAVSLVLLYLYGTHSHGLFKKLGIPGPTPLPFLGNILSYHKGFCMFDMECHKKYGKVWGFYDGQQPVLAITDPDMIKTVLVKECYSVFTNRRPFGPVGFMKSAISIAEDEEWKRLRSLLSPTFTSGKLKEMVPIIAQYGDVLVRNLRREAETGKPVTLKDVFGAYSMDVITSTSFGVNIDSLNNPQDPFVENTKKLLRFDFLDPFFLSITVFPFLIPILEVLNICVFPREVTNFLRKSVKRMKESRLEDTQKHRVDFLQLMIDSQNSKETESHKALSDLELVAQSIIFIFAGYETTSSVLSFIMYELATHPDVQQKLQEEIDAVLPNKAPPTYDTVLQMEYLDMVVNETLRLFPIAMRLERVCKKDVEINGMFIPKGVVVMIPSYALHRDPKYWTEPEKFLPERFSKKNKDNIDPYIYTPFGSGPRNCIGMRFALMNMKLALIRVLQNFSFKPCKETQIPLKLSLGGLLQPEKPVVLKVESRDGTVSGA

[21] = target: Cytochrome P450 2C9 (Homo sapiens, UniProt P11712)
Sequence of Cytochrome P450 2C9 (P11712 whole entry): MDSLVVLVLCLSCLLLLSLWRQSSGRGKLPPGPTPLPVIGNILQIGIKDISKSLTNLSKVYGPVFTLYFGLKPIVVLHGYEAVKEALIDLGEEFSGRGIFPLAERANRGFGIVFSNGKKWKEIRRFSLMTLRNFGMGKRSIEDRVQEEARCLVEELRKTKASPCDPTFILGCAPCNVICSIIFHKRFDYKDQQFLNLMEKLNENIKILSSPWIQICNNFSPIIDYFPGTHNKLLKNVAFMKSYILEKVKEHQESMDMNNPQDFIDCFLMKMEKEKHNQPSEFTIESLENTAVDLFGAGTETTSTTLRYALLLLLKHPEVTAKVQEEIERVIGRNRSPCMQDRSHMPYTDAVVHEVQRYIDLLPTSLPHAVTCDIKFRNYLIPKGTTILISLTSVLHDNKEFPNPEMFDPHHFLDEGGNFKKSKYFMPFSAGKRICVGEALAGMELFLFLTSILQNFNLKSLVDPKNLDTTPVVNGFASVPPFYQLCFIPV

[22] = target: Cytochrome P450 2D6 (Homo sapiens, UniProt P10635);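 also: CYP2D6 member of a cytochrome P450 panel assay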
Sequence of Cytochrome P450 2D6 (P10635 whole entry): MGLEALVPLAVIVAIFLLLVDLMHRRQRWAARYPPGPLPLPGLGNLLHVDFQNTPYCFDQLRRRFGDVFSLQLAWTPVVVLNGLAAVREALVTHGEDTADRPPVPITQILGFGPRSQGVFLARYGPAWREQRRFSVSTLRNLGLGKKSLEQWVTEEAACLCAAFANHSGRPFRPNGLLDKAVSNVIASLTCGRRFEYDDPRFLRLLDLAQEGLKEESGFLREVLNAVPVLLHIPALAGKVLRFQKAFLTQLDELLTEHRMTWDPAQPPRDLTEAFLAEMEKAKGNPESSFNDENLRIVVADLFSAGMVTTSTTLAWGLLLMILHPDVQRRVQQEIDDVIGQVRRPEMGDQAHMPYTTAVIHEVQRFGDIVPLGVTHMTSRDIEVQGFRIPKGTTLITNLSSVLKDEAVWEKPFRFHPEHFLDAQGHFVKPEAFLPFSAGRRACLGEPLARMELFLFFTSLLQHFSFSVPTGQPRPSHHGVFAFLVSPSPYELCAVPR

CCCCCc1nnc(NC(=O)Cc2cccs2)s1
active: IC50 [1] 12.5 µM | IC50 [2] 17.2 µM | IC50 [3] 3.73 µM | IC50 [4] 6.28 µM | IC50 [6] < 1.56 µM | IC50 [7] 21.4 µM | IC50 [8] 98.6 µM
> 50 µM (not active): IC50 [5]

CC(=O)NC(c1cccs1)c1cc(F)c2cccnc2c1O (configuration not stated)
active: AC50 [9] 1.58 µM | AC50 [10] 1.67 µM | AC50 [11] 2.94 µM | AC50 [12] 13 µM | AC50 [13] 5.16 µM | AC50 [14] 7.74 µM

CC1C/C(=C/c2cccn2C)C(=O)/C(=C/c2cccn2C)C1 (configuration not stated)
inactive: IC50 [15] > 49.7 µM | EC50 [16] > 99 µM | EC50 [18] > 99 µM
active: IC50 [17] 4.39 µM

O=P(O)(CP(=O)(c1ccccc1)c1ccccc1)c1ccccc1O
inconclusive: AC50 [19] 28.2 µM | AC50 [20] 17.8 µM | AC50 [21] 100 nM | AC50 [22]
